In US20220193209A1, “COMPOSITIONS AND METHODS FOR REACTIVATING LATENT IMMUNODEFICIENCY VIRUS AND/OR TREATING IMMUNODEFICIENCY VIRUS INFECTION” (The J. David Gladstone institutes, a testamentary trust …, priority 2019, published 2022):

What was measured:
[1] = test system: latent HIV-1 provirus in J-Lat cells; experiment: HIV-GFP reactivation in J-Lat cell lines (RT-qPCR, FACS); assay type: cell-based
Procedure: Total RNA from samples was extracted using the Direct-zol RNA kit (R2060; Zymogen). cDNA was generated using 500 ng for CD4^+ T cells or 1000 ng of total RNA for J-Lats with Superscript III Reverse transcription (18080-044; ThermoFisher) and oligo(dT) (18418-012; ThermoFisher). Quantitative RT-PCR was carried out using Maxima SYBR Green qPCR Master Mix (Thermo Scientific) on SDS 2.4 software (Applied Biosystems) in a total volume of 12 μL. The SYBR green qPCR reactions contained 5 μl of 2× Maxima SYBR green/Rox qPCR Master Mix (K0221; ThermoFisher), 5 μl of diluted cDNA, and 1 nmol of both forward and reverse primers. The reactions were run using the following conditions: 50° C. for 2 min and 95° C. for 10 min, followed by 40 cycles of 95° C. for 5 s and 62° C. for 30 s. See Table 1 below for a qRT-PCR primer list. […] Dissociation curve analysis was performed after the end of the PCR to confirm the presence of a single and specific product. All qPCRs were independently repeated at least three times, averaged and compared using standard deviation (±SD).
The J-Lat clonal cell lines are Jurkat cells that contain a stably integrated, latent HIV-1 (HXB) Δenv provirus with a GFP reporter gene in place of the nef gene (Jordan, A. et al. EMBO J. 22, 1868-1877 (2003)). In this system, reactivation from established latency can be monitored through GFP expression.
HIV-GFP mRNA reactivation was assessed by RT-qPCR and normalized to RPL13A mRNA. Data represent average SD of three independent experiments. p-value relative to the control at each time point. FIG. 3, Panel B, depicts cell viability assessed by flow cytometry at 72 h of the same experiment as in A. Cell viability was measured by gating on both the live population at the forward scatter (FSC) and side scatter (SSC) plot and then the viable cells after staining with the viability dye. […] HIV-GFP reactivation (bars) and cell viability (dots) were analyzed by FACS. HIV-GFP reactivation is reported as a percentage of GFP-expressing cells (% GFP+ cells). Data represent average f SD of at least three independent experiments. FIG. 3, Panel D, depicts the same experiments as in FIG. 3, Panel C, but performed in different J-Lat cell lines 5A8, 6.3, 11.1 and 15.4. Data represent average f SD of at least three independent experiments. 10 ng/mL TNFα was used as control. […] Calculation of synergy for drug combinations using the Bliss independence model applied to the HIV-GFP reactivation measured as a percentage of GFP-expressing cells (% GFP+ cells).
Chromatin was prepared from J-Lat A2 and 5A8 cells, in which the LTR was stimulated by 1000 nM AS1842856 treatment, TNFα or which were left untreated/DMSO. […] HIV-GFP reactivation was analyzed by FACS and relativized to the control condition. […] Data represent average SD of 3-6 independent experiments. […] HIV-GFP reactivation was analyzed by FACS. […] HIV-GFP reactivation and cell viability were analyzed by FACS. Data were mean±SD of three independent experiments.

ATF4 = experiment: Western blot of ATF4 protein in CD4+ T cells; assay type: cell-based, human; conditions: multiple donors
Procedure: Cells were lysed in radioimmunoprecipitation assay buffer (50 mM Tris-HCl, pH 8, 150 mM NaCl, 1% NP-40, 0.5% sodium deoxycholate, and 0.1% SDS, supplemented with protease inhibitor cocktail; Sigma-Aldrich) for 30 min at 4° C. Samples were resuspended in Laemmli buffer for SDS-PAGE. For chemiluminescent detection, enhanced luminol-based chemiluminescent substrate (ECL) and ECL Hyperfilm (Amersham) were used.
The RNA-Seq results were validated by measuring read counts of the selected genes representative of different pathways (FIG. 8, Panel D) as well as by Real-Time Quantitative PCR (RT-qPCR) (FIG. 7, Panel C). […] Upstream regulator analysis identified TRIB3 and ATF4 as the top regulators of AS1842856-induced gene changes (FIG. 7, Panel D).
FIG. 7, Panels A-E, depict marked upregulation of the regulator ATF4 in response to FOXO1 inhibition in primary CD4^+ T cells. FIG. 7, Panel A depicts a volcano plot from the RNA-Seq data comparing CD4^+ T cells treated with 1000 nM AS1842856 versus DMSO control for 48 h. […] FIG. 7, Panel D, depicts analysis of the five top upstream regulators and table with their activation z-scores according to the RNA-Seq data. FIG. 7, Panel E depicts a representative blot of protein expression of dysregulated genes of interest (left) and densitometry analysis (right) was performed from three individual donors.

## CCn1cc(C(=O)O)c(=O)c2c(N)c(F)c(NC3CCCCC3)cc21 [AS1842856, 5-amino-7-(cyclohexylamino)-1-ethyl-6-fluoro-4-oxo-1,4-dihydro-quinoline-3-carboxylic acid]
[1]; J-Lat A2 cells (contain Tat)
  HIV-driven GFP expression (flow cytometry): increased GFP expression
[1]; J-Lat A72 cells (no Tat)
  HIV-driven GFP expression (flow cytometry): increased GFP expression
[1]; four J-Lat clonal cell lines, 72 hours
  HIV reactivation (percentage of GFP+ cells, median fluorescence intensity): reactivated HIV in each cell line
ATF4
  ATF4 protein levels: increased expression
